test system: HCV replicon; test: HCV replicon replication assay (NPT ELISA); format: cell-based; settings: Hepatitis C virus, 72 h; Huh-7 HCV replicon-containing cells, three days; class symbols; read-out: EC50
Protocol: Compounds claimed herein are tested for the ability to inhibit viral replication of the Hepatitis C replicon in cultured cells in which the HCV replicon construct has been incorporated. The HCV replicon system was described by Bartenschlager, et. al (Science, 285, pp. 110-113 (1999)). The replicon system is predictive of in vivo anti-HCV activity; compounds that are active in humans uniformly evidence activity in the replicon assay.
In this assay HCV replicon containing cells are treated with different concentrations of the test compound to ascertain the ability of the test compound to suppress replication of the HCV replicon. As a positive control, HCV replicon-containing cells are treated with different concentrations of interferon alpha, a known inhibitor of HCV replication. The replicon assay system includes Neomycin Phosphotransferase (NPT) as a component of the replicon itself in order to detect the transcription of replicon gene products in the host cell. Cells in which the HCV replicon is actively replicating have high levels of NPT; the level of NPT is proportional to HCV replication. […] The NPT level of each sample is measured using a captured ELISA.
A protocol for testing compounds for the ability to inhibit viral replication of the Hepatitis C replicon cultured cells in which the replicon construct has been incorporated, follows.
The HCV replicon contains, 5′-3′, the HCV-IRES, the neomycin phosphotransferase (neo) gene, the IRES of encephalomyocarditis virus, which directs translation of HCV sequences NS3 to NS5B, and the 3′-NTR. The sequence of the HCV replicon has been deposited in GenBank (Accession no. AJ242652).
The replicon is transfected into Huh-7 cells using standard methods such as electroporation.
The equipment and materials include, but are not limited to, Huh-7 HCV replicon-containing cells, maintenance media (DMEM (Dulbecco's modified Eagle media) supplemented with 10% FBS, L-glutamine, non-essential amino acids, penicillin (100 units/ml), streptomycin (100 micrograms/ml), and 500 micrograms/ml of Geneticin (G418), screening media (DMEM supplemented with 10% FBS, L-glutamine, non-essential amino acids, penicillin (100 units/ml) and streptomycin (100 micrograms/ml)), 96 well tissue culture plates (flat bottom), 96 well plates (U bottom for drug dilution), Interferon alpha for positive control, fixation reagent (such as methanol: acetone), primary antibody (rabbit anti-NPTII), secondary antibody: Eu-N1 1, and enhancement solution.
HCV replicon-containing cells support high levels of viral RNA replicon replication when their density is suitable. Over-confluency causes decreased viral RNA replication. Therefore, cells must be kept growing in log phase in the presence of 500 micrograms/ml of G418. Generally, cells should be passed twice a week at 1: 4-6 dilution. Cell maintenance is conducted as follows:
HCV replicon-containing cells are examined under a microscope to ensure that cells growing well. Cells are rinsed once with PBS and 2 ml trypsin is added. The cell/trypsin mixture is incubated at 37° C. in a CO2 incubator for 3-5 minutes. After incubation 10 ml of complete media is added to stop the trypsinization reaction. Cells are blown gently, put into a 15 ml tube, and spun at 1200 rpm for 4 minutes. The trypsin/medium solution is removed. Medium (5 ml) is added and the cells are mixed carefully. The cells are counted.
The cells are then seeded onto 96-well plates at a density of 6000-7500 cells/100 microliters/well (6−7.5×10^5 cells/10 ml/plate). The plates are then incubated at 37° C. in a 5% CO2 incubator.
Cells are examined under a microscope approximated 24 hours after seeding and prior to adding drugs. If counting and dilution were performed correctly, cells are 60-70% confluent and nearly all cells should attach and spread evenly in the well.
HCV replicon-containing cells are rinsed with once PBS once; 2 mls of trypsin are then added. Cells are incubated at 37° C. in a 5% CO2 incubator for 3-5 minutes. […]

Row | SMILES | EC50
1 | COC(=O)N[C@H](C(=O)N1C2CCC(C2)[C@H]1c1nc(-c2ccc(-c3c[nH]c([C@@H]4C5CCC(C5)N4C(=O)[C@@H](NC(=O)OC)C(C)C)n3)cc2)c[nH]1)C(C)C [Compound 74] | < 50 nM
2 | COC(=O)NC(C(=O)N1c2ccccc2C[C@H]1c1nc(-c2ccc(-c3ccc(-c4cnc([C@@H]5Cc6ccccc6N5C(=O)C(NC(=O)OC)C(C)C)[nH]4)cc3)cc2)c[nH]1)C(C)C (stereo partly drawn) [Compound 25, dimethyl (2R,2′R)-1,1′-((2S,2′S)-2,2′-(5,5′-(biphenyl-4,4′-diyl)bis(1H-imidazole-5,2-diyl))bis(indoline-2,1-diyl))bis(3-methyl-1-oxobutane-2,1-diyl)dicarbamate] | < 5 nM
3 | COC(=O)N[C@H](C(=O)N1CCCCCC1c1nc(-c2ccc(-c3ccc(-c4c[nH]c(C5C6CCC(C6)N5C(=O)[C@@H](NC(=O)OC)C(C)C)n4)cc3)cc2)c[nH]1)C(C)C (stereo partly shown) [Compound 63] | < 5 nM
4 | COC(=O)N[C@H](C(=O)N1CCCC[C@H]1c1nc(-c2ccc(-c3ccc(-c4c[nH]c([C@@H]5CCCN5C(=O)[C@@H](NC(=O)OC)C(C)C)n4)cc3)cc2)c[nH]1)C(C)C [Compound 48] | < 5 nM
5 | COC(=O)N[C@@H](C(=O)N1c2ccccc2C[C@H]1c1nc(-c2ccc(-c3ccc(-c4cnc([C@@H]5Cc6ccccc6N5)[nH]4)cc3)cc2)c[nH]1)C(C)C [Compound 26, methyl (R)-1-((S)-2-(4-(4′-(2-((S)-indolin-2-yl)-1H-imidazol-5-yl)biphenyl-4-yl)-1H-imidazol-2-yl)indolin-1-yl)-3-methyl-1-oxobutan-2-ylcarbamate] | < 5 nM
6 | COC(=O)N[C@H](C(=O)N1CCC[C@H]1c1ncc(-c2ccc(-c3ccc(-c4c[nH]c([C@@H]5C6CCC(C6)N5C(=O)[C@@H](NC(=O)OC)C(C)C)n4)cc3)cc2)[nH]1)C(C)C (stereo partly shown) [Compound 36] | < 50 nM
7 | COC(=O)N[C@H](C(=O)N1CC=CC1c1nc(-c2ccc(-c3ccc(-c4c[nH]c([C@@H]5C=CCN5C(=O)[C@@H](NC(=O)OC)C(C)C)n4)cc3)cc2)c[nH]1)C(C)C (stereo partly drawn) [Compound 21, dimethyl (2S,2′S)-1,1′-((2R,2′R)-2,2′-(4,4′-(biphenyl-4,4′-diyl)bis(1H-imidazole-4,2-diyl))bis(1H-pyrrole-2,1(2H,5H)-diyl))bis(3-methyl-1-oxobutane-2,1-diyl)dicarbamate] | < 5 nM
8 | CCCS(=O)(=O)N1CCN(Cc2ccc(NC(=O)c3ccc(-c4ccc(-c5c[nH]c([C@@H]6CCCN6C(=O)OC(C)(C)C)n5)cc4)cc3)cc2)CC1 [Compound 18, (S)-tert-butyl 2-(4-(4′-(4-((4-(propylsulfonyl)piperazin-1-yl)methyl)phenylcarbamoyl)biphenyl-4-yl)-1H-imidazol-2-yl)pyrrolidine-1-carboxylate] | < 50 nM
9 | COC(=O)N[C@H](C(=O)N1C2CC(CN(C)C2)C1c1nc(-c2ccc(-c3ccc(-c4cnc([C@@H]5CCCN5C(=O)[C@@H](NC(=O)OC)C(C)C)[nH]4)cc3)cc2)c[nH]1)C(C)C (stereo partly shown) [Compound 52] | < 50 nM
10 | COC(=O)N[C@H](C(=O)N1CCC[C@H]1c1ncc(-c2ccc(-c3ccc(-c4c[nH]c([C@@H]5C6CC([C@H](O)C6)N5C(=O)[C@@H](NC(=O)OC)C(C)C)n4)cc3)cc2)[nH]1)C(C)C (stereo partly shown) [Compound 45] | < 50 nM
11 | COC(=O)N[C@H](C(=O)N1CCCCC1c1nc(-c2ccc(-c3ccc(-c4c[nH]c(C5CCCCN5C(=O)[C@@H](NC(=O)OC)C(C)C)n4)cc3)cc2)c[nH]1)C(C)C (stereo partly shown) [Compound 50] | < 5 nM
12 | COC(=O)NC(C(=O)N1C2CCC(CC2)C1c1ncc(-c2ccc(-c3ccc(-c4c[nH]c([C@@H]5C6CCC(CC6)N5C(=O)C(NC(=O)OC)C(C)C)n4)cc3)cc2)[nH]1)C(C)C (stereo partly shown) [Compound 51] | < 5 nM
13 | COC(=O)N[C@H](C(=O)N1CCCCCC1c1nc(-c2ccc(-c3ccc(-c4c[nH]c(C5CCCCCN5C(=O)[C@@H](NC(=O)OC)C(C)C)n4)cc3)cc2)c[nH]1)C(C)C (stereo partly drawn) [Compound 61, dimethyl (2S,2′S)-1,1′-(2,2′-(4,4′-(biphenyl-4,4′-diyl)bis(1H-imidazole-4,2-diyl))bis(azepane-2,1-diyl))bis(3-methyl-1-oxobutane-2,1-diyl)dicarbamate] | < 50 nM
14 | CC(=O)N[C@H](C(=O)N1CC=CC1c1nc(-c2ccc(-c3ccc(-c4c[nH]c(C5C=CCN5C(=O)[C@@H](NC(C)=O)C(C)C)n4)cc3)cc2)c[nH]1)C(C)C (stereo partly drawn) [Compound 28, N,N′-(2S,2′S)-1,1′-((2R,2′R)-2,2′-(4,4′-(biphenyl-4,4′-diyl)bis(1H-imidazole-4,2-diyl))bis(1H-pyrrole-2,1(2H,5H)-diyl))bis(3-methyl-1-oxobutane-2,1-diyl)diacetamide] | < 50 nM
15 | CCCS(=O)(=O)N1CCN(Cc2ccc(C(=O)Nc3ccc(-c4ccc(-c5c[nH]c([C@@H]6CCCN6C(=O)[C@@H](NC(=O)OC)C(C)C)n5)cc4)cc3)cc2)CC1 [Compound 22, methyl (S)-3-methyl-1-oxo-1-((S)-2-(4-(4′-(4-((4-(propylsulfonyl)piperazin-1-yl)methyl)benzamido)biphenyl-4-yl)-1H-imidazol-2-yl)pyrrolidin-1-yl)butan-2-ylcarbamate] | < 5 nM
16 | COC(=O)NC(C(=O)N1C2CCC(C2)C1c1nc(-c2ccc(-c3ccc(-c4c[nH]c(C5C=CCN5C(=O)[C@@H](NC(=O)OC)C(C)C)n4)cc3)cc2)c[nH]1)C(C)C (stereo partly shown) [Compound 62] | < 5 nM
17 | CNC(=O)C[C@H](C(=O)N1CCC[C@@H]1c1ncc(-c2ccc(-c3ccc(-c4cnc([C@@H]5CCCN5C(=O)[C@@H](CC(=O)NC)C(C)C)[nH]4)cc3)cc2)[nH]1)C(C)C [Compound 40, (S)-3-((R)-2-(5-(4′-(2-((S)-1-((S)-2-isopropyl-4-(methylamino)-4-oxobutanoyl)pyrrolidin-2-yl)-1H-imidazol-5-yl)biphenyl-4-yl)-1H-imidazol-2-yl)pyrrolidine-1-carbonyl)-N,4-dimethylpentanamide] | < 5 nM
18 | COC(=O)N[C@H](C(=O)N1C2CCC(C2)C1c1ncc(-c2ccc(-c3ccc(-c4cnc([C@@H]5CCCN5C(=O)[C@@H](NC(=O)OC)C(C)C)[nH]4)cc3)cc2)[nH]1)C(C)C (stereo partly shown) [Compound 57] | < 5 nM
19 | COC(=O)NC(C(=O)C1C(c2nc(-c3ccc(-c4ccc(-c5cnc([C@@H]6CCCN6C(=O)[C@@H](NC(=O)OC)C(C)C)[nH]5)cc4)cc3)c[nH]2)C2CC1[C@H](F)[C@@H]2F)C(C)C (stereo partly shown) [Compound 60] | < 5 nM
20 | CC(C)(C)OC(=O)N1CC=CC1c1nc(-c2ccc(-c3ccc(-c4c[nH]c([C@@H]5C=CCN5C(=O)OC(C)(C)C)n4)cc3)cc2)c[nH]1 (stereo partly drawn) [Compound 20, (2R,2′R)-tert-butyl 2,2′-(4,4′-(biphenyl-4,4′-diyl)bis(1H-imidazole-4,2-diyl))bis(2,5-dihydro-1H-pyrrole-1-carboxylate)] | < 100 nM
21 | COC(=O)N[C@H](C(=O)N1CCCCCC1c1nc(-c2ccc(-c3ccc(-c4c[nH]c(C5CCCN5C(=O)[C@@H](NC(=O)OC)C(C)C)n4)cc3)cc2)c[nH]1)C(C)C (stereo partly shown) [Compound 59] | < 5 nM
22 | COC(=O)N[C@H](C(=O)N1CCC[C@H]1C1=NC(c2ccc(-c3ccc4[nH]c([C@@H]5C6CCC(C6)N5C(=O)[C@@H](NC(=O)OC)C(C)C)nc4c3)cc2)CN1)C(C)C (stereo partly shown) [Compound 65] | < 5 nM
23 | COC(=O)N[C@H](C(=O)N1C2CCC(C2)[C@H]1c1nc(-c2ccc3c(c2)Cc2cc(-c4c[nH]c([C@@H]5C6CCC(C6)N5C(=O)[C@@H](NC(=O)OC)C(C)C)n4)ccc2-3)c[nH]1)C(C)C [Compound 75] | < 5 nM

same assay, conditions: Hepatitis C virus, Huh-7

Row | SMILES | EC50
24 | COC(=O)NC(C(=O)N1c2ccccc2C[C@H]1c1nc(-c2ccc(-c3ccc(-c4cnc([C@@H]5Cc6ccccc6N5C(=O)C(NC(=O)OC)C(C)C)[nH]4)cc3)cc2)c[nH]1)C(C)C (stereo partly drawn) [Compound 25, dimethyl (2R,2′R)-1,1′-((2S,2′S)-2,2′-(5,5′-(biphenyl-4,4′-diyl)bis(1H-imidazole-5,2-diyl))bis(indoline-2,1-diyl))bis(3-methyl-1-oxobutane-2,1-diyl)dicarbamate] | ≤ 10000 nM
25 | CNC(=O)C[C@H](C(=O)N1CCC[C@@H]1c1ncc(-c2ccc(-c3ccc(-c4cnc([C@@H]5CCCN5C(=O)[C@@H](CC(=O)NC)C(C)C)[nH]4)cc3)cc2)[nH]1)C(C)C [Compound 40, (S)-3-((R)-2-(5-(4′-(2-((S)-1-((S)-2-isopropyl-4-(methylamino)-4-oxobutanoyl)pyrrolidin-2-yl)-1H-imidazol-5-yl)biphenyl-4-yl)-1H-imidazol-2-yl)pyrrolidine-1-carbonyl)-N,4-dimethylpentanamide] | ≤ 10000 nM
